The results in this text go back to patent US6261767A, “Method for the qualitative and quantitative detection of DNA damage” (Societe Francaise de Recherches et d'Investissements (SFRI), priority 1995, dated 2001).

Starred links: 1 amine or outer side, 2 acyl side, 3 side chain; linkers in the order of their positions; H or OH if unused. Positions of bridges follow the written chain, without caps; N, C: chain ends. Non-standard residues stand in square brackets, D forms with d. Residues, ends and D or L forms follow the SMILES beside them. Chains are numbered I, II in the order given. Actinocin(9to1) = Cc1c2oc3c(C)ccc(C(=O)[*:1])c3nc-2c(C(=O)[*:2])c(N)c1=O; NMeV = CN[C@H](C(=O)O)C(C)C; Sar = CNCC(=O)O

In series [1] the test system is repair activity of extracts from HeLa cells. Briefly: modulation (inhibition) of the repair activity of cellular extracts from HeLa cells on damaged DNA. The format is biochemical. The note with it: FIG. 9. An excerpt: The invention also provides a process for measuring the effect of modulation and the inhibitive effect of the repair of at least one molecule, which comprises the following steps:
preparation of damaged DNA fixed on a sensitized support,
action of a composition comprising at least one cellular extract having a repair activity on this DNA, said extract containing markers, and conjointly the action of at least one molecule having the power of modulating the repair action,
direct or indirect revelation of the markers that may be incorporated in the DNA, in the case of repair, and
comparative reading relative to a control specimen.
d/ Repair in the presence of a cellular extract and of agents of known type, comprising for example for a volume of reaction medium (RM) of 50 μl:
In the course of the repair step, see FIG. 1D, the molecules for which it is sought to show a modulator effect of the repair can be added. These molecules are preferably diluted in water or in dimethylsulfoxide (DMSO).

Series [2] concerns DNA damage generated by hydrogen peroxide. The experiment in a line: inhibition of / antioxidant relative activity (R.A.) against DNA damage by hydrogen peroxide. The format is biochemical. The note with it: 10 μm metallic chelating agent.
Series [3] deals with DNA damage generated by methylene blue. The experiment in a line: antioxidant relative activity (R.A.) against DNA damage by photo-activated methylene blue. The format is biochemical. The note with it: summary of the R.A. table. Here is the method:
b/ Methylene blue is known to liberate by photo-activation, one atom of oxygen. For the tests to follow, methylene blue was subjected to radiation with visible light for 20 minutes with two bulb lamps of 100 W, a distance between the lamps and the support plates of 30 cm and a concentration of methylene blue of 50 ng/ml. The step of repair of the damage is carried out according to the information indicated above, with the use of the same reaction medium RM. In the same fashion, the plates, after the action of the reaction medium RM are washed three times with the washing solution indicated above, and incubated 15 minutes with a chemiluminescent substrate ("Lumi-Phos 530"). […] For the second test, with methylene blue, the relative activity RA has been calculated of an antioxidant which is equal to: [formula] in which formula: control RLU corresponds to the value of the signal of methylene blue alone subjected to radiation, test RLU corresponds to the value of the signal of methylene blue subjected to […] radiation plus an antioxidant molecule, and reference RLU corresponds to the value of the signal of the antioxidant molecule alone.

With `OO` [hydrogen peroxide], the “quantity for which the maximum ratio of repair is obtained” value in the series on DNA (plasmid 2959 bp) is on record as 0.27 mM.

For `COc1cccc2c1C(=O)c1c(O)c3c(c(O)c1C2=O)C[C@@](O)(C(=O)CO)C[C@@H]3O[C@H]1C[C@H](N)[C@H](O)[C@H](C)O1` [doxorubicine], the “inhibitor effect on the repair activity” value in series [1] is recorded as “dose- dependent inhibitor effect”.

As to `Cc1c2oc3c(C)ccc(C(=O)N[C@@H]4C(=O)N[C@H](C(C)C)C(=O)N5CCC[C@H]5C(=O)N(C)CC(=O)N(C)[C@@H](C(C)C)C(=O)O[C@@H]4C)c3nc-2c(C(=O)N[C@@H]2C(=O)N[C@H](C(C)C)C(=O)N3CCC[C@H]3C(=O)N(C)CC(=O)N(C)[C@@H](C(C)C)C(=O)O[C@@H]2C)c(N)c1=O` [actinomycin D] (I: T[dV]P[Sar][NMeV] / II: T[dV]P[Sar][NMeV]; ester I:1-I:C, II:1-II:C; linker I:N-II:N via Actinocin(9to1)), the “inhibitor effect on the repair activity” value in series [1] is on record as “dose- dependent inhibitor effect”.

As for `CCn1cc(C(=O)O)c(=O)c2ccc(C)nc21` [nalidixic acid], in series [1], the “inhibitor effect on the repair activity” value is recorded as “without effect”.

`CC(=O)N(O)CCCCCNC(=O)CCC(=O)N(O)CCCCCNC(=O)CCC(=O)N(O)CCCCCN` [mesylate deferroxamine]: in series [2], the “inhibition of the effects of hydrogen peroxide (production of DNA damage)” value is given as “inhibits totally”.

With Vitamin A, the “antioxidant activity (in words)” value in series [3] is given as “no antioxidizing effect”.

In the case of `COS(C)(=O)=O` [MMS, methylmethanesulfonate], in the series on DNA (plasmid 2959 bp) (MMS in contact with DNA before the adsorption step, FIG. 7), the “effectiveness of damage as shown by the repair ratio (before vs after adsorption of DNA)” value is “greater effectiveness of damage”.
